According to PubChem BioAssay (NCI):
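Compound exposure: 48 hours, 5 concentrations, 96-well plates. At the GI50, growth is halved. At the TGI there is no net growth.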

Columns and labels:
Test in all cases: growth of human tumour cells (NCI), 48 h
[1] = test system: 786-0 renal
[2] = test system: A498 renal
[3] = test system: A549 NSCLC
[4] = test system: ACHN renal
[5] = test system: BT-549 breast
[6] = test system: CAKI-1 renal
[7] = test system: CCRF-CEM leukemia
[8] = test system: COLO 205 colon
[9] = test system: DLD-1 colon
[10] = test system: DMS 114 small cell lung
[11] = test system: DMS 273 small cell lung
[12] = test system: DU-145 prostate
[13] = test system: EKVX NSCLC
[14] = test system: HCC-2998 colon
[15] = test system: HCT-116 colon
[16] = test system: HCT-15 colon
[17] = test system: HL-60(TB) leukemia
[18] = test system: HOP-18 NSCLC
[19] = test system: HOP-62 NSCLC
[20] = test system: HOP-92 NSCLC
[21] = test system: HS 578T breast
[22] = test system: HT29 colon
[23] = test system: IGROV1 ovarian
[24] = test system: K-562 leukemia
[25] = test system: KM12 colon
[26] = test system: KM20L2 colon
[27] = test system: LOX IMVI melanoma
[28] = test system: M14 melanoma
[29] = test system: M19-MEL melanoma
[30] = test system: MALME-3M melanoma
[31] = test system: MCF7 breast
[32] = test system: MDA-MB-231 breast
[33] = test system: MDA-MB-435
[34] = test system: MDA-N
[35] = test system: MOLT-4 leukemia
[36] = test system: NCI-H226 lung
[37] = test system: NCI-H23 lung
[38] = test system: NCI-H460 lung
[39] = test system: NCI-H522 lung
[40] = test system: NCI/ADR-RES ovarian
[41] = test system: OVCAR-3 ovarian
[42] = test system: OVCAR-4 ovarian
[43] = test system: OVCAR-5 ovarian
[44] = test system: OVCAR-8 ovarian
[45] = test system: PC-3 prostate
[46] = test system: RPMI-8226 leukemia
[47] = test system: RXF 393 renal
[48] = test system: SF-268 CNS
[49] = test system: SF-295 CNS
[50] = test system: SF-539 CNS
[51] = test system: SK-MEL-2 melanoma
[52] = test system: SK-MEL-28 melanoma
[53] = test system: SK-MEL-5 melanoma
[54] = test system: SK-OV-3 ovarian
[55] = test system: SN12C renal
[56] = test system: SNB-19 CNS
[57] = test system: SNB-75 CNS
[58] = test system: SNB-78 CNS
[59] = test system: SR leukemia
[60] = test system: SW-620 colon
[61] = test system: T-47D breast
[62] = test system: TK-10 renal
[63] = test system: U251 CNS
[64] = test system: UACC-257 melanoma
[65] = test system: UACC-62 melanoma
[66] = test system: UO-31 renal
[67] = test system: XF 498 CNS
[68] = test system: LXFL 529 NSCLC

## O=C(/C=C/c1ccc(O)cc1)c1ccc(O)cc1
[1]
  TGI: > 100 µM
[2]
  TGI: 65.1 µM
[3]
  TGI: > 100 µM
[4]
  TGI: > 74.3 µM
[5]
  TGI: > 75.3 µM
[6]
  TGI: 37.9 µM
[7]
  TGI: > 85 µM
[8]
  TGI: > 65.9 µM
[9]
  TGI: 36.9 µM
[10]
  TGI: 43.8 µM
[11]
  TGI: 36.9 µM
[12]
  TGI: 99.9 µM
[13]
  TGI: 97.1 µM
[14]
  TGI: 52.7 µM
[15]
  TGI: 36.3 µM
[16]
  TGI: 57.5 µM
[17]
  TGI: > 75.1 µM
[18]
  TGI: > 100 µM
[19]
  TGI: 49.1 µM
[20]
  TGI: 76 µM
[21]
  TGI: > 67.5 µM
[22]
  TGI: 48.5 µM
[23]
  TGI: > 100 µM
[24]
  TGI: > 82.3 µM
[25]
  TGI: 19.8 µM
[26]
  TGI: 47 µM
[27]
  TGI: 28.1 µM
[28]
  TGI: 42.7 µM
[29]
  TGI: 42.2 µM
[30]
  TGI: 70 µM
[31]
  TGI: > 100 µM
[32]
  TGI: > 100 µM
[33]
  TGI: > 100 µM
[34]
  TGI: > 88.4 µM
[35]
  TGI: 82.3 µM
[36]
  TGI: 27.2 µM
[37]
  TGI: 62.6 µM
[38]
  TGI: 72.5 µM
[39]
  TGI: 9.22 µM
[40]
  TGI: > 63.1 µM
[41]
  TGI: 52.1 µM
[42]
  TGI: > 100 µM
[43]
  TGI: > 76.3 µM
[44]
  TGI: 41.6 µM
[45]
  TGI: > 100 µM
[46]
  TGI: 69 µM
[47]
  TGI: 50.1 µM
[48]
  TGI: 71.8 µM
[49]
  TGI: > 96.7 µM
[50]
  TGI: 54.2 µM
[51]
  TGI: 50 µM
[52]
  TGI: 61.3 µM
[53]
  TGI: 44.2 µM
[54]
  TGI: > 100 µM
[55]
  TGI: 79 µM
[56]
  TGI: > 78.2 µM
[57]
  TGI: 51.7 µM
[58]
  TGI: > 100 µM
[59]
  TGI: 51.3 µM
[60]
  TGI: 57.9 µM
[61]
  TGI: > 100 µM
[62]
  TGI: > 100 µM
[63]
  TGI: 46.6 µM
[64]
  TGI: 74.7 µM
[65]
  TGI: > 66.8 µM
[66]
  TGI: 51.2 µM
[67]
  TGI: 34.1 µM

## N[C@@H]1CCCC[C@@H]1N.O=P([O-])([O-])CN(CCN(CP(=O)([O-])[O-])CP(=O)([O-])[O-])CP(=O)([O-])[O-].[Pt+2]
[1]
  GI50: > 25 µM
  TGI: > 25 µM
[2]
  GI50: > 25 µM
  TGI: > 25 µM
[3]
  GI50: > 25 µM
  TGI: > 25 µM
[4]
  GI50: > 25 µM
  TGI: > 25 µM
[6]
  GI50: > 25 µM
  TGI: > 25 µM
[8]
  GI50: > 25 µM
  TGI: > 25 µM
[13]
  GI50: > 25 µM
  TGI: > 25 µM
[14]
  GI50: > 25 µM
  TGI: > 25 µM
[15]
  GI50: > 25 µM
  TGI: > 25 µM
[16]
  GI50: > 25 µM
  TGI: > 25 µM
[17]
  GI50: > 25 µM
  TGI: > 25 µM
[19]
  GI50: > 25 µM
  TGI: > 25 µM
[22]
  GI50: > 25 µM
  TGI: > 25 µM
[23]
  GI50: > 25 µM
  TGI: > 25 µM
[24]
  GI50: > 25 µM
  TGI: > 25 µM
[25]
  GI50: > 25 µM
  TGI: > 25 µM
[26]
  GI50: > 25 µM
  TGI: > 25 µM
[27]
  GI50: > 25 µM
  TGI: > 25 µM
[28]
  GI50: > 25 µM
  TGI: > 25 µM
[30]
  GI50: > 25 µM
  TGI: > 25 µM
[35]
  GI50: > 25 µM
  TGI: > 25 µM
[36]
  GI50: > 25 µM
  TGI: > 25 µM
[37]
  GI50: > 25 µM
  TGI: > 25 µM
[38]
  GI50: > 25 µM
  TGI: > 25 µM
[39]
  GI50: > 25 µM
  TGI: > 25 µM
[41]
  GI50: > 25 µM
  TGI: > 25 µM
[42]
  GI50: > 25 µM
  TGI: > 25 µM
[43]
  GI50: > 25 µM
  TGI: > 25 µM
[44]
  GI50: > 25 µM
  TGI: > 25 µM
[46]
  GI50: > 25 µM
  TGI: > 25 µM
[47]
  GI50: > 25 µM
  TGI: > 25 µM
[48]
  GI50: > 25 µM
  TGI: > 25 µM
[49]
  GI50: > 25 µM
  TGI: > 25 µM
[50]
  GI50: > 25 µM
  TGI: > 25 µM
[51]
  GI50: > 25 µM
  TGI: > 25 µM
[52]
  GI50: > 25 µM
  TGI: > 25 µM
[53]
  GI50: > 25 µM
  TGI: > 25 µM
[54]
  GI50: > 25 µM
  TGI: > 25 µM
[55]
  GI50: > 25 µM
  TGI: > 25 µM
[56]
  GI50: > 25 µM
  TGI: > 25 µM
[57]
  GI50: > 25 µM
  TGI: > 25 µM
[60]
  GI50: > 25 µM
  TGI: > 25 µM
[62]
  GI50: > 25 µM
  TGI: > 25 µM
[63]
  GI50: > 25 µM
  TGI: > 25 µM
[64]
  GI50: > 25 µM
  TGI: > 25 µM
[65]
  GI50: > 25 µM
  TGI: > 25 µM
[66]
  GI50: > 25 µM
  TGI: > 25 µM

## NC(=O)c1ccccc1NC(=O)C(=O)C(C(=O)c1ccc(Cl)c(Cl)c1)C1OC(=O)c2ccccc21 (stereo unspecified)
[1]
  TGI: > 100 µM
[2]
  TGI: > 100 µM
[3]
  TGI: > 100 µM
[4]
  TGI: > 100 µM
[6]
  TGI: > 100 µM
[7]
  TGI: > 100 µM
[8]
  TGI: > 100 µM
[9]
  TGI: > 100 µM
[11]
  TGI: > 100 µM
[13]
  TGI: > 100 µM
[14]
  TGI: > 100 µM
[15]
  TGI: 39 µM
[16]
  TGI: > 100 µM
[17]
  TGI: > 100 µM
[18]
  TGI: > 100 µM
[19]
  TGI: > 100 µM
[20]
  TGI: > 100 µM
[22]
  TGI: > 100 µM
[23]
  TGI: > 100 µM
[24]
  TGI: > 100 µM
[25]
  TGI: > 100 µM
[26]
  TGI: > 100 µM
[68]
  TGI: > 100 µM
[28]
  TGI: > 100 µM
[30]
  TGI: 80.4 µM
[35]
  TGI: > 100 µM
[36]
  TGI: 56.3 µM
[37]
  TGI: > 100 µM
[41]
  TGI: > 100 µM
[42]
  TGI: > 100 µM
[43]
  TGI: > 100 µM
[44]
  TGI: > 100 µM
[46]
  TGI: > 100 µM
[47]
  TGI: 45.7 µM
[48]
  TGI: > 100 µM
[55]
  TGI: > 100 µM
[56]
  TGI: > 100 µM
[57]
  TGI: 83.2 µM
[58]
  TGI: > 100 µM
[59]
  TGI: > 100 µM
[60]
  TGI: > 100 µM
[63]
  TGI: > 100 µM
[64]
  TGI: > 100 µM
[65]
  TGI: > 100 µM
[67]
  TGI: > 100 µM
